Test results taken from patent publication US9717671B2, “Composition for improving skin, hair and coat health containing flavanones” (Nestec S.A., priority 2003, dated 2017).

What was measured:
[1] = system: Human immortalized keratinocytes (HaCaT); experiment: Cytotoxicity assay (LDH activity in supernatant as a measure for cell death); format: cell-based; details: for cell death (LDH activity): normal culture conditions (without menadione)
Experimental: FIG. 1: HaCat cells were incubated with 10 μM hesperetin (hp, red bars) or low 10 μM hesperetin-7-O-glucuronide (hp-7-O-gluc, yellow bars) or equal amounts of DMSO as a control (blue bars) and treated with or without menadione for additional 5 h. The supernatant was analyzed for lactate dehydrogenase (LDH) activity and results were expressed relative to cells which were lysed with Triton X-100® before analysis (100% death). Human immortalized keratinocytes (HaCaT) were incubated with 10 μM hesperetin, 10 μM hesperetin-7-O-glucuronide or equal amounts of DMSO as a negative control for 16 h and 1 h before challenge. Cells were then treated with 100 μM menadione, a xenobiotic which generates reactive oxygen species intracellularly. Non-menadione treated cells were used as a positive control. After 5 h the supernatant was analysed for lactate dehydrogenase (LDH) activity as a measure for cell death using the CytoTox 96 non-radioactive cytotoxicity assay (Promega, USA).

rat skin = experiment: Histopathological analysis of rat skin, hesperidin growth trial; format: in vivo, female wistar rats; details: rats fed hesperidin diet (0.1% and 0.5%) from weaning to 12 weeks of age, vs control diet
Source text: FIG. 3: Histopathological analysis of rat skin supplemented with hesperidin. 6 μm paraffin sections were de-waxed, stained with hematoxylin/eosin and mounted. Representative images in two magnifications are shown for the control group (A and D) and the groups supplemented with hesperidin (0.1%: B and E, 0.5% C and F).
(§1) Rat skin biopsies were obtained from the Heperidin growth trial (FIG. 2). Dorsal skin was excised, one part was fixed in 4% PFA and paraffin embedded, one part was cryo-preserved and another part was immediately frozen in liquid nitrogen.
Rat skin was dissected and fixed for 4 days in 4% paraformaldehyde in PBS (pH 7.4) at 4° C. and embedded in paraffin using a Leica Microsystem embedding apparatus. The tissues were washed in PBS and saline (0.9% NaCl) and dehydrated by passing them through saline solutions with increasing ethanol concentrations: 30 min each in 30%, 50%, 70%, 90%, 99%, 100% and an additional hour in 100%. Tissue samples were incubated twice for 30 min in xylene, followed by 2-3 h and 3 h incubations in paraffin wax at 60° C. 6 μm thick paraffin sections were cut using a Leica Microtome. Sections were de-waxed 5 min in xylene and dehydrated by passing them through a series of solutions with decreasing ethanol concentrations: 1 min each in 100%, 96%, 90%, 80%, 70%, and 50% ethanol. Finally, they were transferred into destilled water and stained. […]

interleukin 6 (IL-6) = experiment: Real-time PCR of rat skin total RNA, IL-6 expression; format: in vivo, female wistar rats; details: rats fed 0.5% hesperidin diet, vs control diet
Experimental: (§2) FIG. 4: Real-time PCR analysis of total RNA isolated from rat skin fed either a control diet (ctrl) or a hesperidin-supplemented diet (0.1% Hp, 0.5% Hp) for the expression of CD1d1 and interleukin 6 (IL-6). Samples were analyzed in 3 pools containing 4 rats each and obtained Ct values are shown for CD1d1 in A and IL-6 in B. Dots represent averages of technical triplicates, bars the total average per group. Fold changes in relative expression of the supplementation compared to control diet and relative to a housekeeping gene are shown in C. The control diet was set to 1 fold and is represented by a thick line. Confident intervals were calculated using ANOVA.
as §1
(§3) Skin samples were homogenized with Lysing Matrix D, total RNAs were extracted using the ToTally RNA™ Kit following the manufacturer's instructions. RNA was eluted with 40 μl of nuclease-free water.
(§4) The quantification was performed using the Ribogreen® RNA quantitation Kit on 96-well plates and a fluorescence microplate reader according to the manual. Measurements were done in duplicate. The samples were diluted either 1:680 or 1:3400 in a final volume of 100 μl 1×TE buffer. […]
(§5) Data were analysed by ANOVA. […]

CD1d1 antigen = experiment: Real-time PCR of rat skin total RNA, CD1d1 expression; format: in vivo, female wistar rats; details: vs control diet
Experimental: as §2, §1, §3, §4, §5

Row | SMILES | potency of protective effect compared to the aglycone ([1]; 10 μM each, FIG. 1) | protective effect against cell death (LDH activity) ([1]; 10 μM, challenged with 100 μM menadione for 5 h, vs DMSO control) | cell death (LDH activity) ([1]; 10 μM, vs DMSO control) | number of inflammatory cells in skin (histopathology) (rat skin) | IL-6 mRNA levels in skin (interleukin 6 (IL-6)) | CD1d1 mRNA levels in skin (CD1d1 antigen; rats fed 0.1% hesperidin diet) | CD1d1 mRNA levels in skin (CD1d1 antigen; rats fed 0.5% hesperidin diet)
1 | COc1ccc([C@@H]2CC(=O)c3c(O)cc(O[C@@H]4O[C@H](C(=O)O)[C@@H](O)[C@H](O)[C@H]4O)cc3O2)cc1O [hesperetin-7-O-glucuronide] | more potent compared to hp | even more pronounced | reducing cell death |  |  |  | 
2 | COc1ccc([C@@H]2CC(=O)c3c(O)cc(O)cc3O2)cc1O [hesperetin] |  |  | reducing cell death |  |  |  | 
3 | COc1ccc([C@@H]2CC(=O)c3c(O)cc(O[C@@H]4O[C@H](CO[C@@H]5O[C@@H](C)[C@H](O)[C@@H](O)[C@H]5O)[C@@H](O)[C@H](O)[C@H]4O)cc3O2)cc1O [hesperidin] |  |  |  | reduced number of inflammatory cells | significantly reduced | significantly decreased | significantly decreased
